Source: patent US11980648B2, “Compositions including ginsenoside 20(S)-Rg3 and methods of using ginsenoside 20(S)-Rg3 to inhibit alpha herpesvirus” (MIDDLE TENNESSEE STATE UNIVERSITY, priority 2020, dated 2024)
Where “and” joins values, the source holds several entries; their conditions need not be identical. Equal values may be shown once.

What was measured:
HSV-1 [1] = test: Virus inhibition, HSV-1 on Vero cells (PrestoBlue); format: cell-based, herpes simplex virus type 1 (MacIntyre strain); conditions: at the non-toxic concentration of Table 1; MOI 0.1; compound and virus added simultaneously; parentheses = greater cell death than virus alone
Protocol: (§1) Viruses and Quantification. Herpes simplex virus type 1 (HSV-1, MacIntyre strain, ATCC, VR-539) or herpes simplex virus type 2 (HSV-2, ATCC, VR-734) were used in these studies. Virus titer was determined by plaque assay. Briefly, following 2 hour-adsorption of various virus dilutions onto a Vero cell monolayer in a 24-well plate, the medium was removed and cells were overlaid with 1.5% carboxymethylcellulose (Sigma Chemical Company, St. Louis, Mo.) and incubated 48 hours at 37° C. with 5% CO2. After incubation, cells were fixed with methanol, stained with Giemsa (Sigma Chemical Company, St. Louis, Mo.) and plaques were counted. Each virus dilution was prepared in quadruplicate.
(§2) Cytotoxicity and Virus Inhibition. All ginsenosides, isomers, and protopanaxadiols were evaluated for toxic effects on Vero cells prior to anti-viral testing. Cells were seeded at 5000 cells/well in a black 96-well plate with clear bottom in a volume of 100 μL and allowed to attach for 24 hours. The P. ginseng compounds were prepared in DMSO at 100 μM and were taken through serial two-fold dilutions to determine the concentration when the rate of cell death was less than 10% compared to control, untreated cells. Each dilution was tested in three wells and all assays were repeated three times. Following a 48 hour-incubation at 37° C. in 5% CO2, 11 μL of PrestoBlue (Invitrogen, Carlsbad, Calif.) was added to each well and the plate was incubated for an additional 30 minutes. PrestoBlue determines cell viability by changing from blue to red as resazurin is reduced to resorufin by viable cells. Following the PrestoBlue incubation, fluorescence was determined by spectrophotometric reading using Soft Max Pro (Molecular Diagnostics, San Jose, Calif., USA).
(§3) For cytotoxicity testing, 4 μL of dilutions of the ginsenosides or protopanaxadiols were added to 396 μL of medium 199 and 100 μL of this mixture was added to each of three wells. For anti-viral testing, 4 μL of the non-toxic reagent and 4 μL of HSV-1 or HSV-2 diluted to an MOI of 0.1 were added to 392 μL of medium 199 and 100 μL of this mixture was added to each of three wells. Virus inhibition was determined by comparing the cell death of reagent-exposed cells with cell death of control cells only receiving virus. The 50% inhibitory concentration (IC50) was determined through a series of two-fold dilutions and calculation by linear regression analysis.

Vero cells = test: Cytotoxicity on Vero cells (PrestoBlue); format: cell-based; conditions: for Cytotoxicity (non-toxic concentration): concentration causing less than 10% cell death compared with controls, Vero cells, 48 hour incubation, tested from 100 μM in 2-fold dilutions
Protocol: Cells. Vero cells (American Type Culture Collection (ATCC), Manassas, VA, CCL-81) were maintained in medium 199 (Sigma Chemical Company, St. Louis, MO) that was supplemented with 8% fetal bovine serum (Invitrogen, Carlsbad, CA), 1.25 μg/mL fungizone (Invitrogen, Carlsbad, CA) and penicillin-streptomycin, 1000 U/mL and 1 mg/mL respectively (Sigma Chemical Company, St. Louis, MO). Cells were passed weekly using 0.1% trypsin (Sigma Chemical Company, St. Louis, MO) to detach the cells from the flasks. Cell quantification was done by trypan blue exclusion.
as §2, with “The P. ginseng compounds were prepared in DMSO at 100 μM and were taken through serial two-fold dilutions to determine the concentration when the rate of cell death was less than 10% compared to control, untreated cells.” left out
as §3

coxsackie B 3 virus = conditions: 100 μg/mL; cited from earlier work
human rhinovirus 3 = conditions: 100 μg/mL; cited from earlier work
HSV-1 [2] = test: Plaque reduction of HSV-1 on Vero cell monolayer; format: cell-based, herpes simplex virus type 1 (MacIntyre strain); conditions: valacyclovir 16 μM, 20(S)-Rg3 50 μM, about 50 PFU/well, 48 hours
Protocol: as §1
The plaque assay procedure also was used to evaluate the percent plaque reduction; the only procedural change was that a constant virus concentration was used (50 plaque forming units (PFU)/well). Plaque reduction was measured by comparing the control (virus only), with valacyclovir (16 μM) with virus or 20(S)-Rg3 (50 μM) with virus. Sample wells were evaluated in quadruplicate. Following the 2 hour-virus adsorption, the methylcellulose-medium containing the same concentrations of valacyclovir or Rg3 was added to the appropriate wells. After 48 hours, plaques were fixed, stained and counted.

HSV-1 [3] = test: Time studies of HSV-1 inhibition (PrestoBlue); format: cell-based, herpes simplex virus type 1; conditions: Human alphaherpesvirus 1; HSV-1 incubated with compound 0 to 4 hours prior to addition to cells; valacyclovir 16 μM; read-out: percent inhibition of HSV-1
Protocol: Time Studies. For virus inhibition studies described above, reagent 20(S)-Rg3 and virus were added to cells simultaneously. To evaluate the potential mode of action of Rg3, various combinations of valacyclovir, Rg3 and HSV-1 were tested at different time periods. The following combinations were evaluated at both one hour and four hours: • Virus applied to cells first (for one hour or four hours), followed by addition of valacyclovir, Rg3 or both valacyclovir and Rg3 to the cells; • Valacyclovir or Rg3 or both valacyclovir and Rg3 applied to cells first (for one or four hours), followed by virus; • Valacyclovir or Rg3 incubated together with virus first for one or four hours then added to cells.
All procedures described for evaluation of virus inhibition were followed in identical fashion as outlined for the PrestoBlue procedure except valacyclovir was used at a constant concentration of 16 μM and 20(S)-Rg3 at 50 μM.

Molecule: CC(C)=CCC[C@@](C)(O)C1CC[C@]2(C)C1[C@H](O)CC1[C@@]3(C)CC[C@H](O[C@@H]4OC(CO)[C@@H](O)[C@@H](O)C4O[C@@H]4OC(CO)[C@@H](O)[C@@H](O)C4O)C(C)(C)C3CC[C@]12C (stereo partly drawn) [20(R)-Rg3, 20(R)-ginsenoside-Rg3]
- Percent Inhibition of HSV-1 (HSV-1 [1]): 22.7%

Molecule: CC(C)=CCC[C@](C)(O)[C@H]1CC[C@]2(C)[C@@H]1[C@H](O)C[C@@H]1[C@@]3(C)CC[C@H](O)C(C)(C)[C@@H]3CC[C@]12C [20(S)-protopanaxadiol, reference compound]
- toxicity (Vero cells; 25 μM): non-toxic
- Cytotoxicity (non-toxic concentration) (Vero cells): 12.5 µM

Molecule: CC(C)=CCC[C@](C)(O)[C@H]1CC[C@]2(C)[C@@H]1[C@H](O)C[C@@H]1[C@@]3(C)CC[C@H](O)C(C)(C)[C@@H]3[C@@H](O[C@@H]3O[C@H](CO)[C@@H](O)[C@H](O)[C@H]3O[C@@H]3O[C@@H](C)[C@H](O)[C@@H](O)[C@H]3O)C[C@]12C [Rg2]
- effect on coxsackie B 3 virus (coxsackie B 3 virus): inhibitory effects
- effect on human rhinovirus 3 (human rhinovirus 3): inhibitory effects

Molecule: CC(C)[C@H](N)C(=O)OCCOCn1cnc2c(=O)[nH]c(N)nc21 [Valacyclovir, reference compound]
- Percent Reduction of plaques compared to the control (HSV-1 [2]): 85.7%
- Number of Plaques (HSV-1 [2]; ± standard error): 8.1 ± 1.1
- Percent Cell Death (Vero cells; African green monkey, 48 h, 16 μM): 1.2±0.4%
- inhibition at 16 µM (HSV-1 [3]): 52.3 to 54.7%

Molecule: CC(C)=CCC[C@@](C)(O)[C@H]1CC[C@]2(C)[C@@H]1[C@H](O)C[C@@H]1[C@@]3(C)CC[C@H](O)C(C)(C)[C@@H]3CC[C@]12C [20(R)-protopanaxadiol, reference compound]
- Percent Inhibition of HSV-1 (HSV-1 [1]): 14.4%
- Cytotoxicity (non-toxic concentration) (Vero cells): 12.5 µM

Molecule: CC(C)=CCC[C@](C)(O[C@@H]1O[C@H](CO[C@@H]2O[C@H](CO)[C@@H](O)[C@H](O)[C@H]2O)[C@@H](O)[C@H](O)[C@H]1O)[C@H]1CC[C@]2(C)[C@@H]1[C@H](O)C[C@@H]1[C@@]3(C)CC[C@H](O[C@@H]4O[C@H](CO)[C@@H](O)[C@H](O)[C@H]4O[C@@H]4O[C@H](CO)[C@@H](O)[C@H](O)[C@H]4O)C(C)(C)[C@@H]3CC[C@]12C [Rb1]
- Percent Inhibition of HSV-1 (HSV-1 [1]): 23% and 23.3%

Molecule: CC(C)=CCC[C@](C)(O[C@@H]1O[C@H](CO)[C@@H](O)[C@H](O)[C@H]1O)[C@H]1CC[C@]2(C)[C@@H]1[C@H](O)C[C@@H]1[C@@]3(C)CC[C@H](O)C(C)(C)[C@@H]3[C@@H](O[C@@H]3O[C@H](CO)[C@@H](O)[C@H](O)[C@H]3O)C[C@]12C [Rg1]
- Percent Inhibition of HSV-1 (HSV-1 [1]): 13.2%

Molecule: CC(C)=CCC[C@](C)(O[C@@H]1O[C@H](CO[C@@H]2OC[C@@H](O)[C@H](O)[C@H]2O)[C@@H](O)[C@H](O)[C@H]1O)[C@H]1CC[C@]2(C)[C@@H]1[C@H](O)C[C@@H]1[C@@]3(C)CC[C@H](O[C@@H]4O[C@H](CO)[C@@H](O)[C@H](O)[C@H]4O[C@@H]4O[C@H](CO)[C@@H](O)[C@H](O)[C@H]4O)C(C)(C)[C@@H]3CC[C@]12C [Rb3]
- Percent Inhibition of HSV-1 (HSV-1 [1]): 30.9%

Molecule: 20(S)-Rh2
- Percent Inhibition of HSV-1 (HSV-1 [1]): 46.2%

Molecule: CC(C)=CCC[C@](C)(O[C@@H]1O[C@H](CO[C@@H]2OC[C@H](O)[C@H](O)[C@H]2O)[C@@H](O)[C@H](O)[C@H]1O)[C@H]1CC[C@]2(C)[C@@H]1[C@H](O)C[C@@H]1[C@@]3(C)CC[C@H](O[C@@H]4O[C@H](CO)[C@@H](O)[C@H](O)[C@H]4O[C@@H]4O[C@H](CO)[C@@H](O)[C@H](O)[C@H]4O)C(C)(C)[C@@H]3CC[C@]12C [Rb2]
- Percent Inhibition of HSV-1 (HSV-1 [1]): 26.4%
